For this assay, the system named is Mycobacterium tuberculosis H37Rv. In words: Mycobacterium tuberculosis H37Rv Inhibition Assay. Type of assay: cell-based.
Where [1] appears, read: ATCC 25618 / H37Rv, H37Rv strain (ATCC25618), Middlebrook 7H9, resazurin fluorescence, read-out: MtB MIC.
Setting [2] is: H37Rv inhibition assay, read-out: MIC value.

≈ marks a conversion by molar mass, not a printed value. Where two headings read alike, the source gives them in different places.

`O=c1ccc2ccc(=O)n3c2n1C[C@H]3CN1CCC(NCc2cnc(CO)c(Cl)c2)CC1` [Example 56, (1R)-1-{[4-({[5-chloro-6-(hydroxymethyl)-3-pyridinyl]methyl}amino)-1-piperidinyl]methyl}-1,2-dihydro-4H,9H-imidazo[1,2,3-ij]-1,8-naphthyridine-4,9-dione]: the minimal inhibitory concentration (MIC) (usually the lowest concentration found to suppress growth) under setting [1] was 0.3 µg/mL (≈ 0.658 µM).
For the compound `Cc1ncc(CNC2CCN(CC3Cn4c(=O)ccc5ncc(=O)n3c54)CC2)cc1F` (stereo not drawn) [Example 52, 2-[(4-{[(5-fluoro-6-methyl-3-pyridinyl)methyl]amino}-1-piperidinyl)methyl]-1,2-dihydro-3H,8H-2a,5,8a-triazaacenaphthylene-3,8-dione], the MIC is, setting by setting: under setting [1], greater than 2.12 µg/mL; under setting [2], greater than 1 µg/mL.
For `Cc1cc(CNC2CCN(CC3Cn4c(=O)ccc5ncc(=O)n3c54)CC2)cnc1C` (stereo not drawn) [Example 14, 2-[(4-{[(5,6-dimethyl-3-pyridinyl)methyl]amino}-1-piperidinyl)methyl]-1,2-dihydro-3H,8H-2a,5,8a-triazaacenaphthylene-3,8-dione], in that order: 2.1 µg/mL (≈ 5 µM) and greater than 1 µg/mL.
On to `Cl.O=c1ccc2ncc(=O)n3c2n1C[C@H]3CN1CCC(NCc2ccc(C(F)(F)F)nc2)CC1` [Example 46, (2R)-2-{[4-({[6-(trifluoromethyl)-3-pyridinyl]methyl}amino)-1-piperidinyl]methyl}-1,2-dihydro-3H,8H-2a,5,8a-triazaacenaphthylene-3,8-dione hydrochloride], for which the MIC under setting [1] turned out to be 0.078 µg/mL.
Turning to `COCCc1ncc(CNC2CCN(C[C@@H]3Cn4c(=O)ccc5ncc(=O)n3c54)CC2)cc1Cl` [Example 65, (2R)-2-({4-[({5-chloro-6-[2-(methyloxy)ethyl]-3-pyridinyl}methyl)amino]-1-piperidinyl}methyl)-1,2-dihydro-3H,8H-2a,5,8a-triazaacenaphthylene-3,8-dione], under setting [2], the MIC is greater than 1 µg/mL.
As for `Cl.N#Cc1ncc(CNC2CCN(C[C@@H]3Cn4c(=O)ccc5ccc(=O)n3c54)CC2)cc1Cl` [Example 50, 3-chloro-5-{[(1-{[(1R)-4,9-dioxo-1,2-dihydro-4H,9H-imidazo[1,2,3-ij]-1,8-naphthyridin-1-yl]methyl}-4-piperidinyl)amino]methyl}-2-pyridinecarbonitrile dihydrochloride], the MIC under setting [1] amounted to 0.082 µg/mL.
Regarding `COc1ccc(CNC2CCN(CC3Cn4c(=O)ccc5ncc(=O)n3c54)CC2)cc1Cl` (stereo not drawn) [Example 39, 2-{[4-({[3-chloro-4-(methyloxy)phenyl]methyl}amino)-1-piperidinyl]methyl}-1,2-dihydro-3H,8H-2a,5,8a-triazaacenaphthylene-3,8-dione], the MIC under setting [1] was 1.14 µg/mL (≈ 2.5 µM) and the MIC under setting [2] was greater than 1 µg/mL.
On to `Cl.O=c1ccc2ncc(=O)n3c2n1CC3CN1CCC(NCc2ccc(C(F)(F)F)nc2)CC1` (stereo not drawn) [Example 20, 2-{[4-({[6-(trifluoromethyl)-3-pyridinyl]methyl}amino)-1-piperidinyl]methyl}-1,2-dihydro-3H,8H-2a,5,8a-triazaacenaphthylene-3,8-dione hydrochloride], for which the MIC under setting [1] came to 0.311 µg/mL.
On the same count and under the same terms, the figure for `Cl.O=c1ccc2ncc(=O)n3c2n1C[C@H]3CN1CCC(NCc2ccc(Cl)c(Cl)c2)CC1` [Example 3, (2R)-2-[(4-{[(3,4-dichlorophenyl)methyl]amino}-1-piperidinyl)methyl]-1,2-dihydro-3H,8H-2a,5,8a-triazaacenaphthylene-3,8-dione] is 0.04 µg/mL; for `Cc1ncc(CNC2CCN(CC3Cn4c(=O)ccc5ncc(=O)n3c54)CC2)cc1Cl` (stereo not drawn) [Example 26, 2-[(4-{[(5-chloro-6-methyl-3-pyridinyl)methyl]amino}-1-piperidinyl)methyl]-1,2-dihydro-3H,8H-2a,5,8a-triazaacenaphthylene-3,8-dione] it is 0.069 µg/mL (≈ 0.156 µM).
With `Cc1cc(CNC2CCN(C[C@@H]3Cn4c(=O)ccc5ccc(=O)n3c54)CC2)cnc1C` [Example 13, (1R)-1-[(4-{[(5,6-dimethyl-3-pyridinyl)methyl]amino}-1-piperidinyl)methyl]-1,2-dihydro-4H,9H-imidazo[1,2,3-ij]-1,8-naphthyridine-4,9-dione], the MIC is, setting by setting: under setting [1], 1.05 µg/mL (≈ 2.5 µM); under setting [2], greater than 1 µg/mL.
As for `Cc1ncc(CNC2CCN(C[C@@H]3Cn4c(=O)ccc5ccc(=O)n3c54)CC2)cc1F` [Example 63, (1R)-1-[(4-{[(5-fluoro-6-methyl-3-pyridinyl)methyl]amino}-1-piperidinyl)methyl]-1,2-dihydro-4H,9H-imidazo[1,2,3-ij]-1,8-naphthyridine-4,9-dione], the MIC under setting [2] is greater than 1 µg/mL.
As for `Cl.O=c1ccc2ccc(=O)n3c2n1C[C@H]3CN1CCC(NCc2ccc(C(F)(F)F)nc2)CC1` [Example 59, (1R)-1-{[4-({[6-(trifluoromethyl)-3-pyridinyl]methyl}amino)-1-piperidinyl]methyl}-1,2-dihydro-4H,9H-imidazo[1,2,3-ij]-1,8-naphthyridine-4,9-dione hydrochloride], under setting [1], the MIC turned out to be 0.154 µg/mL.
The same measure, in the same setting: the same measure for `O=c1ccc2ncc(=O)n3c2n1CC3CN1CCC(NCc2ccc(Br)cc2)CC1` (stereo not drawn) [Example 29, 2-[(4-{[(4-bromophenyl)methyl]amino}-1-piperidinyl)methyl]-1,2-dihydro-3H,8H-2a,5,8a-triazaacenaphthylene-3,8-dione]: 0.147 µg/mL (≈ 0.313 µM).
Consider `O=c1cnc2ccc(=O)n3c2n1C[C@H]3CN1CCC(NCc2ccc(C(F)(F)F)nc2)CC1` [Example 11, (1R)-1-{[4-({[6-(trifluoromethyl)-3-pyridinyl]methyl}amino)-1-piperidinyl]methyl}-1,2-dihydro-3H,8H-2a,5,8a-triazaacenaphthylene-3,8-dione], for which the MIC under setting [1] stood at 0.14 µg/mL (≈ 0.304 µM).
On the same count and under the same terms, the same measure for `O=c1ccc2ncc(=O)n3c2n1CC3CN1CCC(NCc2ccc(C(F)(F)F)nn2)CC1` (stereo not drawn) [Example 17, 2-{[4-({[6-(trifluoromethyl)-3-pyridazinyl]methyl}amino)-1-piperidinyl]methyl}-1,2-dihydro-3H,8H-2a,5,8a-triazaacenaphthylene-3,8-dione]: 0.865 µg/mL (≈ 1.87 µM).
The same measure, in the same setting: the figure for `Cc1cc(CNC2CCN(CC3Cn4c(=O)ccc5ncc(=O)n3c54)CC2)sc1Br` (stereo not drawn) [Example 24, 2-[(4-{[(5-bromo-4-methyl-2-thienyl)methyl]amino}-1-piperidinyl)methyl]-1,2-dihydro-3H,8H-2a,5,8a-triazaacenaphthylene-3,8-dione] is 0.077 µg/mL (≈ 0.157 µM).
On to `O=c1ccc2ccc(=O)n3c2n1C[C@H]3CN1CCC(NCc2ccc(CO)c(Cl)c2)CC1` [Example 64, (1R)-1-{[4-({[3-chloro-4-(hydroxymethyl)phenyl]methyl}amino)-1-piperidinyl]methyl}-1,2-dihydro-4H,9H-imidazo[1,2,3-ij]-1,8-naphthyridine-4,9-dione], for which the MIC under setting [2] is greater than 1 µg/mL.
As for `Cc1cc(CNC2CCN(C[C@@H]3Cn4c(=O)ccc5ncc(=O)n3c54)CC2)ccc1F.Cl` [Example 6, (2R)-2-[(4-{[(4-fluoro-3-methylphenyl)methyl]amino}-1-piperidinyl)methyl]-1,2-dihydro-3H,8H-2a,5,8a-triazaacenaphthylene-3,8-dione hydrochloride], the MIC under setting [1] was found to be 0.29 µg/mL.
Same read-out and setting: the figure for `O=c1ccc2ccc(=O)n3c2n1C[C@H]3CN1CCC(NCc2ccc(C(F)(F)F)nn2)CC1` [Example 18, (1R)-1-{[4-({[6-(trifluoromethyl)-3-pyridazinyl]methyl}amino)-1-piperidinyl]methyl}-1,2-dihydro-4H,9H-imidazo[1,2,3-ij]-1,8-naphthyridine-4,9-dione] is 0.432 µg/mL (≈ 0.938 µM).
Same read-out and setting: the figure for `Cc1ncc(CNC2CCN(C[C@@H]3Cn4c(=O)cnc5ccc(=O)n3c54)CC2)cc1Cl.Cl` [Example 8, (1R)-1-[(4-{[(5-chloro-6-methyl-3-pyridinyl)methyl]amino}-1-piperidinyl)methyl]-1,2-dihydro-3H,8H-2a,5,8a-triazaacenaphthylene-3,8-dione hydrochloride] is 0.08 µg/mL.
The same measure, in the same setting: the same measure for `O=c1ccc2ncc(=O)n3c2n1CC3CN1CCC(NCc2ccc([N+](=O)[O-])cc2)CC1` (stereo not drawn) [Example 38, 2-[(4-{[(4-nitrophenyl)methyl]amino}-1-piperidinyl)methyl]-1,2-dihydro-3H,8H-2a,5,8a-triazaacenaphthylene-3,8-dione]: 0.273 µg/mL (≈ 0.625 µM).
In the case of `O=c1ccc2ncc(=O)n3c2n1CC3CN1CCC(NCc2cnc(Cl)s2)CC1` (stereo not drawn) [Example 37, 2-[(4-{[(2-chloro-1,3-thiazol-5-yl)methyl]amino}-1-piperidinyl)methyl]-1,2-dihydro-3H,8H-2a,5,8a-triazaacenaphthylene-3,8-dione], the minimum inhibitory concentration (MIC) under setting [1] was found to be 2.17 µg/mL (≈ 5 µM).
The same measure, in the same setting: the figure for `O=c1ccc2ncc(=O)n3c2n1CC3CN1CCC(NCc2cnc(Cl)c(Cl)c2)CC1` (stereo not drawn) [Example 15, 2-[(4-{[(5,6-dichloro-3-pyridinyl)methyl]amino}-1-piperidinyl)methyl]-1,2-dihydro-3H,8H-2a,5,8a-triazaacenaphthylene-3,8-dione] is less than 0.018 µg/mL; for `Cc1ncc(CNC2CCN(C[C@@H]3Cn4c(=O)ccc5ccc(=O)n3c54)CC2)cc1Br.Cl` [Example 12, (1R)-1-[(4-{[(5-bromo-6-methyl-3-pyridinyl)methyl]amino}-1-piperidinyl)methyl]-1,2-dihydro-4H,9H-imidazo[1,2,3-ij]-1,8-naphthyridine-4,9-dione hydrochloride] it is less than 0.019 µg/mL.
Consider `O=c1ccc2ncc(=O)n3c2n1CC3CN1CCC(NCc2cc(Br)cs2)CC1` (stereo not drawn) [Example 35, 2-[(4-{[(4-bromo-2-thienyl)methyl]amino}-1-piperidinyl)methyl]-1,2-dihydro-3H,8H-2a,5,8a-triazaacenaphthylene-3,8-dione], for which the MIC reads like this: under setting [1], 1.19 µg/mL (≈ 2.5 µM); under setting [2], greater than 1 µg/mL.
As for `Cc1ncc(CNC2CCN(C[C@@H]3Cn4c(=O)ccc5ncc(=O)n3c54)CC2)cc1Cl.Cl` [Example 2, (2R)-2-[(4-{[(5-chloro-6-methyl-3-pyridinyl)methyl]amino}-1-piperidinyl)methyl]-1,2-dihydro-3H,8H-2a,5,8a-triazaacenaphthylene-3,8-dione hydrochloride], under setting [1], the MIC amounted to 0.04 µg/mL.
The same measure, in the same setting: the same measure for `Cl.O=c1ccc2ccc(=O)n3c2n1C[C@H]3CN1CCC(NCc2ccc(Cl)c(Cl)c2)CC1` [Example 31, (1R)-1-[(4-{[(3,4-dichlorophenyl)methyl]amino}-1-piperidinyl)methyl]-1,2-dihydro-4H,9H-imidazo[1,2,3-ij]-1,8-naphthyridine-4,9-dione hydrochloride]: 0.019 µg/mL.
